Reference: article PMC2878666 (Biochemistry, 2009)

What was measured:
[1] = target: T1, nicotinic acetylcholine receptor (Torpedo nAChR, α2βγδ), α subunit (Tetronarce californica, UniProt P02710+P02712+P02714+P02718); test: [3H]PCP radioligand displacement; assay type: binding
[2] = target: T1, nicotinic acetylcholine receptor (Torpedo nAChR, α2βγδ), α subunit; test: [3H]PCP radioligand displacement, centrifugation assay; assay type: binding

T1 sequence (P02710 25-461): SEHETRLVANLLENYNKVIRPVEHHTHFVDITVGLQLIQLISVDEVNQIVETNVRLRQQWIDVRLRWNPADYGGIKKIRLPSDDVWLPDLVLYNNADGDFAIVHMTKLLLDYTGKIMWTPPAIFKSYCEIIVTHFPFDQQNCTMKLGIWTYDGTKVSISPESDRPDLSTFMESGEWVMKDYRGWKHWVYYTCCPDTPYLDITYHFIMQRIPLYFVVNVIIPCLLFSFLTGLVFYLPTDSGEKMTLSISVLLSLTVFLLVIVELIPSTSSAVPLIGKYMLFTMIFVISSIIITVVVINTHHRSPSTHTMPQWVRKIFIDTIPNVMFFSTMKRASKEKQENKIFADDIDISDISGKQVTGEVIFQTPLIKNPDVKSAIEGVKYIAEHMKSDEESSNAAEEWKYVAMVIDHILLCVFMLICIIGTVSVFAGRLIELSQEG
T1 sequence (P02712 25-493): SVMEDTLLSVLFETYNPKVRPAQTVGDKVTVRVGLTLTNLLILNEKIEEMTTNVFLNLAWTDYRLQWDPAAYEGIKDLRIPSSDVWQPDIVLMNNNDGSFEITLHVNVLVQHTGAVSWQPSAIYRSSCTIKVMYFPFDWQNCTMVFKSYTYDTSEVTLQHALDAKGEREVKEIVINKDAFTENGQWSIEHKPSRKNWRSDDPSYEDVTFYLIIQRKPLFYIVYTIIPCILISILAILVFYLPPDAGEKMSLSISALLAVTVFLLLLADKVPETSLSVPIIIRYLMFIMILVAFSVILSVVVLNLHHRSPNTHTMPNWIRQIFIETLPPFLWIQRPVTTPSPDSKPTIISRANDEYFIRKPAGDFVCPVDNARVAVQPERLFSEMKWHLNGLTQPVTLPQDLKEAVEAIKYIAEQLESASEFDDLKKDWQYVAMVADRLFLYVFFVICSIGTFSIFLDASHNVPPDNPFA
T1 sequence (P02714 18-506): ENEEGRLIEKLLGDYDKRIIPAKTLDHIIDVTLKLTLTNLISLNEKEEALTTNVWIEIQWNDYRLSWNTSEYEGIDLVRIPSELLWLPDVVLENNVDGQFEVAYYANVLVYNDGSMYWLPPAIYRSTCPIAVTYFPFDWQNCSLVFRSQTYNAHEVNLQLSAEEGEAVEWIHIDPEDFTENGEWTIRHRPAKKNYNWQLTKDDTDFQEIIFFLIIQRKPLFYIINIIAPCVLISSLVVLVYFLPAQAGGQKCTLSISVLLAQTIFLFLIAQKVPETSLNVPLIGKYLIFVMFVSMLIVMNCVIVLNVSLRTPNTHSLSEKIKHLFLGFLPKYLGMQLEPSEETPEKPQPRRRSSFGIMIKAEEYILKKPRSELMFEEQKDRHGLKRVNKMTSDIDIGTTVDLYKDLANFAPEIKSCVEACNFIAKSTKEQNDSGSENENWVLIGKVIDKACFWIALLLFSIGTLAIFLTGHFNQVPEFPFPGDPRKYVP
T1 sequence (P02718 22-522): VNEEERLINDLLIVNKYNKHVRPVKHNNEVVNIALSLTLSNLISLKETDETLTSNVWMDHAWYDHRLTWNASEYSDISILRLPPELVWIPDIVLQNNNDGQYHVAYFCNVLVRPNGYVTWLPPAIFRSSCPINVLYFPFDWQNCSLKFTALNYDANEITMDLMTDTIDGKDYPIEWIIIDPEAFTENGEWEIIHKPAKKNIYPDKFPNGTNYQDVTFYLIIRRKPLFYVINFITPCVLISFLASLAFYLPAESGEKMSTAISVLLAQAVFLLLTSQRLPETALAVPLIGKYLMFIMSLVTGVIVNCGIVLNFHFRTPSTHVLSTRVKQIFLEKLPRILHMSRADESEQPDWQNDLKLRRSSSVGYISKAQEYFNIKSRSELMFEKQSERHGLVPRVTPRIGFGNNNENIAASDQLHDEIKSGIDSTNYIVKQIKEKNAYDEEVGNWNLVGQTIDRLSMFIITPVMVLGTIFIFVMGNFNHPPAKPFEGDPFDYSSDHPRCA

SMILES | IC50 [1] [µM] | IC50 [2] [µM]
CN(C)CCCN1c2ccccc2Sc2ccc(Cl)cc21 [CPZ, chlorpromazine] | 2.3 ± 0.4 | 
CN(C)CCCN1c2ccccc2Sc2ccccc21 [promazine] |  | 3.5 ± 0.2
CN(C)CCCN1c2ccccc2[S+]([O-])c2ccc(Cl)cc21 (stereo not drawn) [CPZsulfoxide, chlorpromazine sulfoxide] |  | 69 ± 6
